How the values were obtained:
Candida tropicalis = Candida tropicalis in 0.30 minutes from ozone-demand free water; cited from earlier work
Naegleria gruberi = Naegleria gruberi in 1.1 minutes from ozone-demand free phosphate buffer solution; cited from earlier work
Poliovirus type I = Poliovirus type I in 9 minutes from activated sludge effluent; cited from earlier work
[1] = system: Bacillus stearothermophilus (ATCC 7953); assay: Resistance of six organisms to sterilization with ozone gas (Example I); details: six organisms compared, cell density 10^4-10^7, minimum of three runs
[2] = system: Bacillus subtilis v. globigii spores; details: within 1.5-2 minutes, water purged with 3% ozone by weight; cited from earlier work
Escherichia coli = Escherichia coli in 19 minutes from raw waste water; cited from earlier work
[3] = system: human immunodeficiency virus (HIV); details: non-toxic concentration of 4 μg ozone per ml of serum; cited from earlier work

Structure (SMILES): O=[O+][O-] [ozone]
- ozone concentration reported for a 99% reduction (Candida tropicalis): 0.02 mg/L
- ozone concentration reported for a 99% reduction (Naegleria gruberi): 1.2 mg/L
- ozone concentration reported for a 99% reduction (Poliovirus type I): 0.2 mg/L
- resistance of organism to ozone exposure (ability to maintain viability) [1]: most resistant organism
- log reduction of bacterial spores [2]: four-log reduction
- ozone concentration reported for a 99% reduction (Escherichia coli): 2.2 mg/L
- log reduction in the infectious titer [3]: six-log reduction
